Values quoted from earlier work as cited in US7858334B2, “Degradation of hydrophobic ester pesticides and toxins” (priority 2002, dated 2010).

## CC1(C)C(C=C(Cl)Cl)C1C(=O)OCc1cccc(Oc2ccccc2)c1 (racemic) [permethrin, 3-phenoxybenzyl(1RS)-cis, trans-3-(2,2-dichlorovinyl)-2,2-dimethylcyclopropane carboxylate]
  published solubility in aqueous solution: 0.5 µM
